Measured values published in ChEMBL document CHEMBL1671627, “Increasing trends in antimicrobial resistance among clinically important anaerobes and Bacteroides fragilis isolates causing nosocomial infections: emerging resistance to carbapenems” (2008).
In brackets after ≈: the same amount, converted by molar mass.

Key:
[1] = system: Bacteroides fragilis; assay: Antibacterial activity against Bacteroides fragilis assessed as susceptible isolates by CLSI agar dilution method; type: functional
[2] = system: Bacteroides fragilis; assay: Antibacterial activity against Bacteroides fragilis assessed as resistant isolates by CLSI agar dilution method; type: functional
[3] = system: Bacteroides thetaiotaomicron; assay: Antibacterial activity against beta-lactamase producing Bacteroides thetaiotaomicron assessed as susceptible isolates by CLSI agar dilution method; type: functional
[4] = system: Phocaeicola vulgatus; assay: Antibacterial activity against beta-lactamase producing Bacteroides vulgatus by CLSI agar dilution method; type: functional
[5] = system: Phocaeicola vulgatus; assay: Antibacterial activity against beta-lactamase producing Bacteroides vulgatus assessed as susceptible isolates by CLSI agar dilution method; type: functional
[6] = system: Phocaeicola vulgatus; assay: Antibacterial activity against beta-lactamase producing Bacteroides vulgatus assessed as resistant isolates by CLSI agar dilution method; type: functional
[7] = system: Bacteroides uniformis; assay: Antibacterial activity against beta-lactamase producing Bacteroides uniformis by CLSI agar dilution method; type: functional
[8] = system: Bacteroides uniformis; assay: Antibacterial activity against beta-lactamase producing Bacteroides uniformis assessed as susceptible isolates by CLSI agar dilution method; type: functional
[9] = system: Bacteroides uniformis; assay: Antibacterial activity against beta-lactamase producing Bacteroides uniformis assessed as resistant isolates by CLSI agar dilution method; type: functional
[10] = system: Bacteroides caccae; assay: Antibacterial activity against beta-lactamase producing Bacteroides caccae by CLSI agar dilution method; type: functional
[11] = system: Bacteroides caccae; assay: Antibacterial activity against beta-lactamase producing Bacteroides caccae assessed as susceptible isolates by CLSI agar dilution method; type: functional
[12] = system: Bacteroides caccae; assay: Antibacterial activity against beta-lactamase producing Bacteroides caccae assessed as resistant isolates by CLSI agar dilution method; type: functional
[13] = system: Fusobacterium varium; assay: Antibacterial activity against Fusobacterium varium by CLSI agar dilution method; type: functional
[14] = system: Fusobacterium nucleatum; assay: Antibacterial activity against Fusobacterium nucleatum by CLSI agar dilution method; type: functional
[15] = system: Fusobacterium mortiferum; assay: Antibacterial activity against Fusobacterium mortiferum by CLSI agar dilution method; type: functional
[16] = system: Fusobacterium necrophorum; assay: Antibacterial activity against Fusobacterium necrophorum by CLSI agar dilution method; type: functional
[17] = system: Fusobacterium varium; assay: Antibacterial activity against Fusobacterium varium assessed as susceptible isolates by CLSI agar dilution method; type: functional
[18] = system: Fusobacterium nucleatum; assay: Antibacterial activity against Fusobacterium nucleatum assessed as susceptible isolates by CLSI agar dilution method; type: functional
[19] = system: Fusobacterium mortiferum; assay: Antibacterial activity against Fusobacterium mortiferum assessed as susceptible isolates by CLSI agar dilution method; type: functional
[20] = system: Fusobacterium necrophorum; assay: Antibacterial activity against Fusobacterium necrophorum assessed as susceptible isolates by CLSI agar dilution method; type: functional
[21] = system: Fusobacterium varium; assay: Antibacterial activity against Fusobacterium varium assessed as resistant isolates by CLSI agar dilution method; type: functional
[22] = system: Fusobacterium nucleatum; assay: Antibacterial activity against Fusobacterium nucleatum assessed as resistant isolates by CLSI agar dilution method; type: functional
[23] = system: Fusobacterium mortiferum; assay: Antibacterial activity against Fusobacterium mortiferum assessed as resistant isolates by CLSI agar dilution method; type: functional
[24] = system: Fusobacterium necrophorum; assay: Antibacterial activity against Fusobacterium necrophorum assessed as resistant isolates by CLSI agar dilution method; type: functional
[25] = system: Prevotella buccae; assay: Antibacterial activity against Prevotella buccae by CLSI agar dilution method; type: functional; conditions: Segatella buccae
[26] = system: Prevotella bivia; assay: Antibacterial activity against Prevotella bivia by CLSI agar dilution method; type: functional
[27] = system: Prevotella intermedia; assay: Antibacterial activity against Prevotella intermedia by CLSI agar dilution method; type: functional
[28] = system: Prevotella melaninogenica; assay: Antibacterial activity against Prevotella melaninogenica by CLSI agar dilution method; type: functional
[29] = system: Prevotella buccae; assay: Antibacterial activity against Prevotella buccae assessed as susceptible isolates by CLSI agar dilution method; type: functional, Segatella buccae
[30] = system: Prevotella bivia; assay: Antibacterial activity against Prevotella bivia assessed as susceptible isolates by CLSI agar dilution method; type: functional
[31] = system: Prevotella intermedia; assay: Antibacterial activity against Prevotella intermedia assessed as susceptible isolates by CLSI agar dilution method; type: functional
[32] = system: Prevotella melaninogenica; assay: Antibacterial activity against Prevotella melaninogenica assessed as susceptible isolates by CLSI agar dilution method; type: functional
[33] = system: Prevotella buccae; assay: Antibacterial activity against Prevotella buccae assessed as resistant isolates by CLSI agar dilution method; type: functional, Segatella buccae
[34] = system: Prevotella bivia; assay: Antibacterial activity against Prevotella bivia assessed as resistant isolates by CLSI agar dilution method; type: functional
[35] = system: Prevotella intermedia; assay: Antibacterial activity against Prevotella intermedia assessed as resistant isolates by CLSI agar dilution method; type: functional
[36] = system: Prevotella melaninogenica; assay: Antibacterial activity against Prevotella melaninogenica assessed as resistant isolates by CLSI agar dilution method; type: functional
[37] = system: Veillonella parvula; assay: Antibacterial activity against Veillonella parvula by CLSI agar dilution method; type: functional
[38] = system: Clostridium perfringens; assay: microbe, parasite or virus in culture; type: functional
[39] = system: Clostridium paraputrificum; assay: Antibacterial activity against beta-lactamase producing Clostridium paraputrificum by CLSI agar dilution method; type: functional
[40] = system: Clostridium septicum; assay: Antibacterial activity against beta-lactamase producing Clostridium septicum by CLSI agar dilution method; type: functional
[41] = system: Clostridium tertium; assay: Antibacterial activity against beta-lactamase producing Clostridium tertium by CLSI agar dilution method; type: functional
[42] = system: Clostridium paraputrificum; assay: Antibacterial activity against beta-lactamase producing Clostridium paraputrificum assessed as susceptible isolates by CLSI agar dilution method; type: functional
[43] = system: Clostridium septicum; assay: Antibacterial activity against beta-lactamase producing Clostridium septicum assessed as susceptible isolates by CLSI agar dilution method; type: functional
[44] = system: Clostridium tertium; assay: Antibacterial activity against beta-lactamase producing Clostridium tertium assessed as susceptible isolates by CLSI agar dilution method; type: functional
[45] = system: Bacteroides fragilis; assay: Antibacterial activity against Bacteroides fragilis by CLSI agar dilution method; type: functional
[46] = system: Bacteroides thetaiotaomicron; assay: Antibacterial activity against beta-lactamase producing Bacteroides thetaiotaomicron by CLSI agar dilution method; type: functional
[47] = system: Clostridium paraputrificum; assay: Antibacterial activity against beta-lactamase producing Clostridium paraputrificum assessed as resistant isolates by CLSI agar dilution method; type: functional
[48] = system: Clostridium septicum; assay: Antibacterial activity against beta-lactamase producing Clostridium septicum assessed as resistant isolates by CLSI agar dilution method; type: functional
[49] = system: Clostridium tertium; assay: Antibacterial activity against beta-lactamase producing Clostridium tertium assessed as resistant isolates by CLSI agar dilution method; type: functional
[50] = system: Peptostreptococcus anaerobius; assay: Antibacterial activity against beta-lactamase producing Peptostreptococcus anaerobius by CLSI agar dilution method; type: functional
[51] = system: Peptostreptococcus anaerobius; assay: Antibacterial activity against beta-lactamase producing Peptostreptococcus anaerobius assessed as susceptible isolates by CLSI agar dilution method; type: functional
[52] = system: Peptostreptococcus anaerobius; assay: Antibacterial activity against beta-lactamase producing Peptostreptococcus anaerobius assessed as resistant isolates by CLSI agar dilution method; type: functional
[53] = system: Parvimonas micra; assay: Antibacterial activity against beta-lactamase producing Micromonas micros by CLSI agar dilution method; type: functional
[54] = system: Parvimonas micra; assay: Antibacterial activity against beta-lactamase producing Micromonas micros assessed as susceptible isolates by CLSI agar dilution method; type: functional
[55] = system: Parvimonas micra; assay: Antibacterial activity against beta-lactamase producing Micromonas micros assessed as resistant isolates by CLSI agar dilution method; type: functional
[56] = system: Peptoniphilus asaccharolyticus; assay: Antibacterial activity against beta-lactamase producing Peptoniphilus asaccharolyticus by CLSI agar dilution method; type: functional
[57] = system: Peptoniphilus asaccharolyticus; assay: Antibacterial activity against beta-lactamase producing Peptoniphilus asaccharolyticus assessed as susceptible isolates by CLSI agar dilution method; type: functional
[58] = system: Peptoniphilus asaccharolyticus; assay: Antibacterial activity against beta-lactamase producing Peptoniphilus asaccharolyticus assessed as resistant isolates by CLSI agar dilution method; type: functional
[59] = system: Finegoldia magna; assay: Antibacterial activity against beta-lactamase producing Finegoldia magna by CLSI agar dilution method; type: functional
[60] = system: Finegoldia magna; assay: Antibacterial activity against beta-lactamase producing Finegoldia magna assessed as susceptible isolates by CLSI agar dilution method; type: functional
[61] = system: Finegoldia magna; assay: Antibacterial activity against beta-lactamase producing Finegoldia magna assessed as resistant isolates by CLSI agar dilution method; type: functional

Structure (SMILES): CCC[C@@H]1C[C@@H](C(=O)N[C@@H]([C@H]2O[C@H](SC)[C@H](O)[C@@H](O)[C@H]2O)[C@H](C)Cl)N(C)C1 [CLINDAMYCIN]
- Activity [1]: 63%
- Activity [2]: 37%
- Activity [3]: 43%
- MIC50 [4]: 2 µg/mL (≈ 4.71 µM)
- MIC90 [4]: > 128 µg/mL
- Activity [5]: 57%
- Activity [6]: 39%
- MIC50 [7]: 2 µg/mL (≈ 4.71 µM)
- MIC90 [7]: > 128 µg/mL
- Activity [8]: 57%
- Activity [9]: 39%
- MIC50 [10]: 2 µg/mL (≈ 4.71 µM)
- MIC90 [10]: > 128 µg/mL
- Activity [11]: 57%
- Activity [12]: 39%
- MIC50 [13]: 0.25 µg/mL (≈ 0.588 µM)
- MIC90 [13]: 4 µg/mL (≈ 9.41 µM)
- MIC50 [14]: 0.25 µg/mL (≈ 0.588 µM)
- MIC90 [14]: 4 µg/mL (≈ 9.41 µM)
- MIC50 [15]: 0.25 µg/mL (≈ 0.588 µM)
- MIC90 [15]: 4 µg/mL (≈ 9.41 µM)
- MIC50 [16]: 0.25 µg/mL (≈ 0.588 µM)
- MIC90 [16]: 4 µg/mL (≈ 9.41 µM)
- Activity [17]: 85%
- Activity [18]: 85%
- Activity [19]: 85%
- Activity [20]: 85%
- Activity [21]: 7%
- Activity [22]: 7%
- Activity [23]: 7%
- Activity [24]: 7%
- MIC50 [25]: 0.12 µg/mL (≈ 0.282 µM)
- MIC90 [25]: > 128 µg/mL
- MIC50 [26]: 0.12 µg/mL (≈ 0.282 µM)
- MIC90 [26]: > 128 µg/mL
- MIC50 [27]: 0.12 µg/mL (≈ 0.282 µM)
- MIC90 [27]: > 128 µg/mL
- MIC50 [28]: 0.12 µg/mL (≈ 0.282 µM)
- MIC90 [28]: > 128 µg/mL
- Activity [29]: 69%
- Activity [30]: 69%
- Activity [31]: 69%
- Activity [32]: 69%
- Activity [33]: 31%
- Activity [34]: 31%
- Activity [35]: 31%
- Activity [36]: 31%
- MIC [37]: 0.06 µg/mL (≈ 0.141 µM)
- MIC50 [38]: 1 µg/mL (≈ 2.35 µM)
- MIC90 [38]: 8 µg/mL (≈ 18.8 µM)
- MIC50 [39]: 1 µg/mL (≈ 2.35 µM)
- MIC90 [39]: 8 µg/mL (≈ 18.8 µM)
- MIC50 [40]: 1 µg/mL (≈ 2.35 µM)
- MIC90 [40]: 8 µg/mL (≈ 18.8 µM)
- MIC50 [41]: 1 µg/mL (≈ 2.35 µM)
- MIC90 [41]: 8 µg/mL (≈ 18.8 µM)
- Activity [42]: 75%
- Activity [43]: 75%
- Activity [44]: 75%
- MIC50 [45]: 1 µg/mL (≈ 2.35 µM)
- MIC90 [45]: > 128 µg/mL
- MIC50 [46]: 4 µg/mL (≈ 9.41 µM)
- MIC90 [46]: > 128 µg/mL
- Activity [47]: 14%
- Activity [48]: 14%
- Activity [49]: 14%
- MIC50 [50]: 0.12 µg/mL (≈ 0.282 µM)
- MIC90 [50]: 4 µg/mL (≈ 9.41 µM)
- Activity [51]: 88%
- Activity [52]: 9%
- MIC50 [53]: 0.12 µg/mL (≈ 0.282 µM)
- MIC90 [53]: 4 µg/mL (≈ 9.41 µM)
- Activity [54]: 88%
- Activity [55]: 9%
- MIC50 [56]: 0.12 µg/mL (≈ 0.282 µM)
- MIC90 [56]: 4 µg/mL (≈ 9.41 µM)
- Activity [57]: 88%
- Activity [58]: 9%
- MIC50 [59]: 0.12 µg/mL (≈ 0.282 µM)
- MIC90 [59]: 4 µg/mL (≈ 9.41 µM)
- Activity [60]: 88%
- Activity [61]: 9%
